Measured values as given in ChEMBL document CHEMBL5634130, “Exploring the structural-activity relationship of hexahydropyrazino[1,2-d]pyrido[3,2-b][1,4]oxazine derivatives as potent and orally-bioavailable PARP7 inhibitors” (Eur J Med Chem, 2023).
Values after ≈ are worked out from the molar mass of the structure shown.

Columns and labels:
[1] = Plasma protein binding in mouse at 2 uM incubated for 1 hr by LC/MS analysis; type: ADME, cell-free; details: read-out: PPB (converted)
[2] = Tmax in fasted ICR mouse at 10 mg/kg, po measured for 24 hrs by LC-MS analysis; type: ADME, organism-based; details: in vivo
[3] = Plasma protein binding in monkey at 2 uM incubated for 1 hr by LC/MS analysis; type: ADME, cell-free, Macaca mulatta; details: rhesus monkey, read-out: PPB (converted)
[4] = Metabolic stability in human liver microsomes assessed as intrinsic clearance preincubated for 5 mins followed by NADPH addition measured for 1 hr by LC-MS analysis; type: ADME, Microsome; details: time 65 min, read-out: CLH
[5] = Apparent permeability across apical to basolateral side in MDCKII-MDR1 cells incubated for 2 hrs by LC-MS analysis; type: ADME, cell-based, Canis lupus familiaris; details: dog, MDCK-MDR1
[6] = Metabolic stability in rat liver microsomes assessed as intrinsic clearance preincubated for 5 mins followed by NADPH addition measured for 1 hr by LC-MS analysis; type: ADME, Microsome; details: time 65 min, read-out: CLH
[7] = target: T1, Cytochrome P450 1A2 (Homo sapiens, UniProt P05177); assay: Inhibition of CYP1A2 in human liver microsomes using phenacetin as substrate preincubated for 10 mins followed by substrate addition measured for 30 mins by LC-MS analysis; type: ADME, Microsome
T1 sequence (P05177 whole entry): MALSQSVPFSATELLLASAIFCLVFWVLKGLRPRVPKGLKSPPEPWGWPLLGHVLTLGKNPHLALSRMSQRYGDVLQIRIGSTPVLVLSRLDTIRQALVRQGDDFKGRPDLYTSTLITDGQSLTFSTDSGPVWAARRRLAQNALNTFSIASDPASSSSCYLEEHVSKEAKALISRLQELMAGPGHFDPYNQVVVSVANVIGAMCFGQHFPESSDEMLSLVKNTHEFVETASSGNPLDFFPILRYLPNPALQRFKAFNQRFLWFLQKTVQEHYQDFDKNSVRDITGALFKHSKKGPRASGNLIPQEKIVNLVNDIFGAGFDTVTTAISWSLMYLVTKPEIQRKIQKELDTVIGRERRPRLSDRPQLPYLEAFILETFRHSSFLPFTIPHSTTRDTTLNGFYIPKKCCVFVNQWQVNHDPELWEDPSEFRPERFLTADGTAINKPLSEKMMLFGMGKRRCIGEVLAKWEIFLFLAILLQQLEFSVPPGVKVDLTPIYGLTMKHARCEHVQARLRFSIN

[8] = AUC in fasted ICR mouse at 10 mg/kg, po measured for 24 hrs by LC-MS analysis; type: ADME, organism-based; details: in vivo
[9] = target: Cytochrome P450 2D6 (Homo sapiens, UniProt P10635); assay: Inhibition of CYP2D6 in human liver microsomes using dextromethorphan as substrate preincubated for 10 mins followed by substrate addition measured for 30 mins by LC-MS analysis; type: ADME, Microsome
[10] = AUC in fasted Beagle dog at 10 mg/kg, po measured for 24 hrs by LC-MS analysis; type: ADME, organism-based, Canis lupus familiaris; details: in vivo
[11] = Thermodynamic solubility of compound at pH 7.4; type: physicochemical; details: buffer, read-out: Therm_solubility
[12] = Apparent permeability across basolateral to apical side in MDCKII-MDR1 cells incubated for 2 hrs by LC-MS analysis; type: ADME, cell-based, Canis lupus familiaris; details: dog, MDCK-MDR1
[13] = Kinetic solubility of compound at pH 7.4; type: physicochemical; details: buffer, read-out: Kinetic_solubility
[14] = Passive permeability in MDCKII-MDR1 cells incubated for 2 hrs by LC-MS analysis; type: ADME, cell-based, Canis lupus familiaris; details: dog, MDCK-MDR1, read-out: permeability
[15] = Half life in fasted Beagle dog at 2 mg/kg, iv measured for 24 hrs by LC-MS analysis; type: ADME, organism-based, Canis lupus familiaris; details: in vivo
[16] = Thermodynamic solubility of compound at pH 6.5; type: physicochemical; details: buffer, read-out: Therm_solubility
[17] = target: Cytochrome P450 2C9 (Homo sapiens, UniProt P11712); assay: Inhibition of CYP2C9 in human liver microsomes using diclofenac as substrate preincubated for 10 mins followed by substrate addition measured for 30 mins by LC-MS analysis; type: ADME, Microsome
[18] = target: Cytochrome P450 2C19 (Homo sapiens, UniProt P33261); assay: Inhibition of CYP2C19 in human liver microsomes using mephenytoin as substrate preincubated for 10 mins followed by substrate addition measured for 30 mins by LC-MS analysis; type: ADME, Microsome
[19] = Metabolic stability in dog liver microsomes assessed as intrinsic clearance preincubated for 5 mins followed by NADPH addition measured for 1 hr by LC-MS analysis; type: ADME, Canis lupus familiaris, Microsome; details: time 65 min, read-out: CLH
[20] = target: Cytochrome P450 3A4 (Homo sapiens, UniProt P08684); assay: Inhibition of CYP3A4 in human liver microsomes using midazolam as substrate preincubated for 10 mins followed by substrate addition measured for 30 mins by LC-MS analysis; type: ADME, Microsome
[21] = Thermodynamic solubility of compound at pH 2; type: physicochemical; details: buffer, read-out: Therm_solubility
[22] = Metabolic stability in monkey liver microsomes assessed as intrinsic clearance preincubated for 5 mins followed by NADPH addition measured for 1 hr by LC-MS analysis; type: ADME, Macaca mulatta, Microsome; details: rhesus monkey, time 65 min, read-out: CLH
[23] = Cmax in fasted ICR mouse at 10 mg/kg, po measured for 24 hrs by LC-MS analysis; type: ADME, organism-based; details: in vivo
[24] = Plasma protein binding in human at 2 uM incubated for 1 hr by LC/MS analysis; type: ADME, cell-free; details: read-out: PPB (converted)
[25] = Toxicity in […] SCID mouse model xenografted with human NCI-H1373 cells assessed as animal death at 30 mg/kg, po measured for 21 days; type: organism-based; details: in vivo, 504 h, time 21 day
[26] = Half life in fasted ICR mouse at 10 mg/kg, po measured for 24 hrs by LC-MS analysis; type: ADME, organism-based; details: in vivo
[27] = Oral bioavailability in fasted Beagle dog at 10 mg/kg measured for 24 hrs by LC-MS analysis; type: ADME, organism-based, Canis lupus familiaris; details: in vivo
[28] = Toxicity in […] SCID mouse model xenografted with human NCI-H1373 cells assessed as body weight loss at 30 mg/kg, po measured for 21 days; type: organism-based; details: in vivo, 504 h, time 21 day
[29] = Volume of distribution at steady state in fasted Beagle dog at 2 mg/kg, iv measured for 24 hrs by LC-MS analysis; type: ADME, organism-based, Canis lupus familiaris; details: in vivo, read-out: Vdss
[30] = Half life in fasted ICR mouse at 2 mg/kg, iv measured for 24 hrs by LC-MS analysis; type: ADME, organism-based; details: in vivo
[31] = Kinetic solubility of compound at pH 2; type: physicochemical; details: buffer, read-out: Kinetic_solubility
[32] = Plasma protein binding in rat at 2 uM incubated for 1 hr by LC/MS analysis; type: ADME, cell-free; details: read-out: PPB (converted)
[33] = Oral bioavailability in fasted ICR mouse at 10 mg/kg measured for 24 hrs by LC-MS analysis; type: ADME, organism-based; details: in vivo
[34] = Kinetic solubility of compound at pH 6.5; type: physicochemical; details: buffer, read-out: Kinetic_solubility
[35] = Half life in fasted Beagle dog at 10 mg/kg, po measured for 24 hrs by LC-MS analysis; type: ADME, organism-based, Canis lupus familiaris; details: in vivo
[36] = AUC in fasted ICR mouse at 2 mg/kg, iv measured for 24 hrs by LC-MS analysis; type: ADME, organism-based; details: in vivo
[37] = AUC in fasted Beagle dog at 2 mg/kg, iv measured for 24 hrs by LC-MS analysis; type: ADME, organism-based, Canis lupus familiaris; details: in vivo, iv, 2 mg/kg, 24 h
[38] = Tmax in fasted Beagle dog at 10 mg/kg, po measured for 24 hrs by LC-MS analysis; type: ADME, organism-based, Canis lupus familiaris; details: in vivo
[39] = Metabolic stability in mouse liver microsomes assessed as intrinsic clearance preincubated for 5 mins followed by NADPH addition measured for 1 hr by LC-MS analysis; type: ADME, Microsome; details: time 65 min, read-out: CLH
[40] = Plasma protein binding in dog at 2 uM incubated for 1 hr by LC/MS analysis; type: ADME, cell-free, Canis lupus familiaris; details: read-out: PPB (converted)
[41] = test system: NCI-H1373; assay: Antitumor activity against human NCI-H1373 cells xenografted in […] SCID mouse model assessed as tumor growth inhibition at 30 mg/kg, po administered everyday measured after 21 days relative to control; type: functional; details: NCI-H1373, 504 h, time 21 day, read-out: TGI
[42] = Cmax in fasted Beagle dog at 10 mg/kg, po measured for 24 hrs by LC-MS analysis; type: ADME, organism-based, Canis lupus familiaris; details: in vivo
[43] = Clearance in fasted ICR mouse at 2 mg/kg, iv measured for 24 hrs by LC-MS analysis; type: ADME, organism-based; details: in vivo
[44] = Volume of distribution at steady state in fasted ICR mouse at 2 mg/kg, iv measured for 24 hrs by LC-MS analysis; type: ADME, organism-based; details: in vivo, read-out: Vdss

Cytochrome P450 2C9, sequence (P11712 whole entry): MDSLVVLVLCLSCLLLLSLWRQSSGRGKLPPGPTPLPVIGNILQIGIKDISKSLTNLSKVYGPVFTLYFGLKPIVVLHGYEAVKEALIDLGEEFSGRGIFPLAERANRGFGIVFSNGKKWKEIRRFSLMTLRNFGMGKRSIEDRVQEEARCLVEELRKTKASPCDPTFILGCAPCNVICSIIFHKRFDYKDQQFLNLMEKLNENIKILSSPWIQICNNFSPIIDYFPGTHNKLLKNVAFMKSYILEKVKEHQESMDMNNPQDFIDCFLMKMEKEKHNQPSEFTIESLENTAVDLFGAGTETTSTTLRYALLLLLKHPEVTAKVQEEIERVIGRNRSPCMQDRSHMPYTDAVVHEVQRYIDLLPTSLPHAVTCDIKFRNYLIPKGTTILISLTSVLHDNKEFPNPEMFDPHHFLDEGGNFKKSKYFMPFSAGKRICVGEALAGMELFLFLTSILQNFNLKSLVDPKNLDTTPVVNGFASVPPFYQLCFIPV
Cytochrome P450 2D6, sequence (P10635 whole entry): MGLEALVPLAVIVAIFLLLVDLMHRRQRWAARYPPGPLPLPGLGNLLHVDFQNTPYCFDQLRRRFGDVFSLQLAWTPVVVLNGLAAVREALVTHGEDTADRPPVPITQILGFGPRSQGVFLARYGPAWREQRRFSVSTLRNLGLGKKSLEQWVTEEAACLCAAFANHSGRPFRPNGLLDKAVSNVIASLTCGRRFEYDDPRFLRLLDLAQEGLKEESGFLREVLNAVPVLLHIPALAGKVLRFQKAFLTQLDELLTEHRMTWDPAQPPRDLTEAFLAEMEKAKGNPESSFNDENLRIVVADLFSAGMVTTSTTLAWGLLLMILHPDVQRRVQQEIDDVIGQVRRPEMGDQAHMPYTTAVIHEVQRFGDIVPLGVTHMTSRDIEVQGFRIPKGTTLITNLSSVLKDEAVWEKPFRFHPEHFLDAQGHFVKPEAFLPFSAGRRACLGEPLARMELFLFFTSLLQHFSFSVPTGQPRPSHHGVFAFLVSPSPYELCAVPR
Cytochrome P450 3A4, sequence (P08684 whole entry): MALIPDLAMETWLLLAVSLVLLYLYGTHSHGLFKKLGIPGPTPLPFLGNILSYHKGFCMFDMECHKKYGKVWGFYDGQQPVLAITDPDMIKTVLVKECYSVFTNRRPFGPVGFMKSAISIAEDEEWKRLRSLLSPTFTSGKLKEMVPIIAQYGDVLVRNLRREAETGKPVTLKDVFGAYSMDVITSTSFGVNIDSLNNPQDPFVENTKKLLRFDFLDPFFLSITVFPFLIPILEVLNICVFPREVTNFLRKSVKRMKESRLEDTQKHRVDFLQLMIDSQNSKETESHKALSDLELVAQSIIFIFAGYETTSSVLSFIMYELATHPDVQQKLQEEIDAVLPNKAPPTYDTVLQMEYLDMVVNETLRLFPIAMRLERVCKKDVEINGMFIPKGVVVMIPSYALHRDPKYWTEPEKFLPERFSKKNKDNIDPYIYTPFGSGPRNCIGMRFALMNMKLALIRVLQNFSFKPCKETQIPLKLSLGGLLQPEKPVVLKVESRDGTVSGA
Cytochrome P450 2C19, sequence (P33261 whole entry): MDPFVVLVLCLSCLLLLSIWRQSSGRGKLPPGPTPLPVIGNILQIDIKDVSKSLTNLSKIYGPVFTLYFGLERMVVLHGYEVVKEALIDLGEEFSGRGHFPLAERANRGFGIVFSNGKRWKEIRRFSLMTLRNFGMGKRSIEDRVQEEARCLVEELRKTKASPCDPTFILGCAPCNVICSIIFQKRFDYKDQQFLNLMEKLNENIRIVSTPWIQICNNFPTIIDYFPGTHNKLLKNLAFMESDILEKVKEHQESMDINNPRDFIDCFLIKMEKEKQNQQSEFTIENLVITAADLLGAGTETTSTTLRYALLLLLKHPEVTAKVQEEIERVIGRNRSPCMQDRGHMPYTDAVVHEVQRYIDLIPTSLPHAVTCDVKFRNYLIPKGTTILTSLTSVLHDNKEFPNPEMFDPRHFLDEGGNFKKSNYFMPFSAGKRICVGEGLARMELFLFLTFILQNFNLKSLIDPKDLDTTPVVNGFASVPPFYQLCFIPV

C[C@@H](COCCC(=O)N1CCN(c2ncc(C(F)(F)F)cn2)CC1)Nc1cn[nH]c(=O)c1C(F)(F)F [ATAMPARIB] gave a fraction unbound at 1 h, 2 µM [1] of 0.123, a Tmax [2] of 0.25 h and a fraction unbound at 1 h, 2 µM [3] of 0.347. The CLint scaled [4] was 23.2 mL/min/kg, the Papp A→B at 2 h [5] was 0.28 ×10⁻⁶ cm/s and the CLint scaled [6] was 110 mL/min/kg. For the same molecule, the IC50 [7] was greater than 30 µM, the AUC [8] was 617 ng·h/mL and the IC50 [9] was greater than 30 µM. The AUC [10] was 5508 ng·h/mL, the solubility thermodynamic [11] was 52.8 µg/mL (≈ 101 µM) and the Papp B→A at 2 h [12] was 3.78 ×10⁻⁶ cm/s. It also gave a solubility kinetic [13] of 158 µM (≈ 82.7 µg/mL), a Papp at 2 h [14] of 1.03 ×10⁻⁶ cm/s and a half-life [15] of 1 h. For the same molecule, the solubility thermodynamic [16] was 54.6 µg/mL (≈ 104 µM), the IC50 [17] was 3.13 µM and the IC50 [18] was greater than 30 µM. It also gave a CLint scaled [19] of 17.1 mL/min/kg, an IC50 [20] greater than 30 µM and a solubility thermodynamic [21] of 68.9 µg/mL (≈ 132 µM). For the same molecule, the CLint scaled [22] was 94.8 mL/min/kg, the Cmax [23] was 995 ng/mL and the fraction unbound at 1 h, 2 µM [24] was 0.194. The Activity [25] was “Non-Toxic”, the t1/2 [26] was 2.7 h and the bioavailability [27] was 23.4%. The Activity [28] was “Non-Toxic”, the Vd [29] was 1.7 L/kg and the half-life [30] was 0.2 h. It also gave a solubility kinetic [31] of 158 µM (≈ 82.7 µg/mL), a fraction unbound at 1 h, 2 µM [32] of 0.233 and a bioavailability [33] of 26.2%. The solubility kinetic [34] was 151 µM (≈ 79 µg/mL), the t1/2 [35] was 2.5 h and the AUC at 24 h [36] was 470 ng·h/mL. It also gave an AUC [37] of 4694 ng·h/mL, a Tmax [38] of 1.33 h and a CLint scaled [39] of 345 mL/min/kg. The fraction unbound at 1 h, 2 µM [40] was 0.131, the inhibition in vivo at 30 mg/kg [41] was 62.7% and the Cmax [42] was 1800 ng/mL. The clearance [43] was 72.6 mL/min/kg and the Vd [44] was 0.714 L/kg.
